Experimental data published in patent publication US20040101834A1, “Method of and kit for assessing responsiveness of cancer patients to antifolate chemotherapy” (priority 2001, published 2004).
Positions count from the first letter of the chain named. Names and notes keep the numbering of the source. Like-named read-outs stand apart in the source and are kept apart here. Marks after values point to notes of the source that are not given here.

What was measured:
[1] = test system: parental human CEM leukemia cells (CEM/WT); assay: Antifolate growth inhibition, 72 h drug exposure; assay type: cell-based
[2] = test system: GW70 cells (GW1843U89-resistant CEM subline); assay: Antifolate growth inhibition, 72 h drug exposure; assay type: cell-based, human; conditions: for sensitivity relative to parental CEM cells: lipid-soluble antifolates
[3] = test system: GW70/LF cells; assay: Antifolate growth inhibition, 72 h drug exposure; assay type: cell-based
Description: The GW70 subline was established by stepwise exposure of parental CEM cells to gradually increasing concentrations of the potent thymidylate synthase inhibitor, GW1843U89 in normal growth medium; this selection was initiated at 1.5 nM and terminated at 70 nM GW1843U89, the cells were therefore termed GW70. GW70/LF cells were established by gradual deprivation of folic acid from the growth medium; this was terminated at a concentration of 5 nM folic acid.

[4] = target: T1, RFC in GW70 cells (Homo sapiens, UniProt P41440, E45K/H27R/S46I/V29L); assay: [3H]MTX and [3H]folic acid transport; assay type: cell-based; conditions: GW70 vs parental CEM
T1 construct: endogenous in cells; host or cells: CEM-GW70 (GW1843U89-resistant CCRF-CEM subline)
T1 sequence (P41440 1-591 H27R/V29L/E45K/S46I): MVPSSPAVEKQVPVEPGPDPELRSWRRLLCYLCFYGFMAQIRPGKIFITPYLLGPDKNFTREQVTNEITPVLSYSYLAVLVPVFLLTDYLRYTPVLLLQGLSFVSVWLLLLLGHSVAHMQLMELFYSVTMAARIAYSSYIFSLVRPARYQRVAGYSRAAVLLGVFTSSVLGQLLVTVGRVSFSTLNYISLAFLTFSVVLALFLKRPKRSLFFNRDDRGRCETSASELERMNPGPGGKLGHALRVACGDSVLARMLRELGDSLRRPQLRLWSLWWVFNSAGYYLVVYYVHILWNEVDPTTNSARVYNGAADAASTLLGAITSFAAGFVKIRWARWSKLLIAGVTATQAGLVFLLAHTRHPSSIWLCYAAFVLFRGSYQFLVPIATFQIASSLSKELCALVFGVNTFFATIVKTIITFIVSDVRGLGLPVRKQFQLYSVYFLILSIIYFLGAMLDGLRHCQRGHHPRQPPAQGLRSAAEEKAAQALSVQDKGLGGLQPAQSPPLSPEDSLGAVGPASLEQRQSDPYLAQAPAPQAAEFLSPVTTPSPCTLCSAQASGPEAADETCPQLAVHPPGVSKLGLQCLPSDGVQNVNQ
Description: At selected transport time intervals, ranging from 0.5-30 minutes, uptake was terminated by the addition of 10 ml ice-cold HBSS, after which centrifugation and cell wash with another 10 ml ice-cold HBSS were performed. The final cell pellet was then counted for radioactivity.

[5] = target: T2, human RFC (Homo sapiens, UniProt P41440); conditions: Westerhof et al., 1995; read-out: Ki as transport substrate; cited from earlier work
T2 sequence (P41440 1-591): T1 sequence (P41440 1-591 H27R/V29L/E45K/S46I) with R27H, L29V, K45E, I46S

[6] = target: TS (Mus musculus, UniProt P07607); conditions: Jackman, 1991; cited from earlier work
[7] = test system: parental human CEM leukemia cells (CEM/WT); assay: Folate growth requirement; assay type: cell-based; conditions: read-out: EC50, concentration necessary to support 50% of maximal growth, Table 6
Text: (§1) Table 6 below summarizes the antifolate growth inhibition and folate growth requirement in parental human CEM leukemia cells and their GW70 subline.

[8] = test system: GW70 cells (GW1843U89-resistant CEM subline); assay: Folate growth requirement; assay type: cell-based, human; conditions: Homo sapiens, read-out: EC50, concentration necessary to support 50% of maximal growth; Table 6; column GW (GW70)
Text: as §1

[9] = test system: mouse MTX^rA leukemia transfectant harboring Glu45Lys RFC cDNA; assay: Folate growth requirement in RFC transfectants; assay type: cell-based
Description: (§2) Thereafter, cells were washed twice with serum-free folic acid-free medium, in order to eliminate GAT. […] Thereafter, cells were exposed continuously to various concentrations of leucovorin or folic acid for 72 hours, following which cell numbers were determined by hemocytometer count of viable cells, using trypan blue exclusion.

[10] = test system: mouse MTX^rA leukemia transfectant harboring His27/His56 RFC cDNA; assay: Folate growth requirement in RFC transfectants; assay type: cell-based
Description: as §2

[11] = test system: mouse MTX^rA leukemia transfectant harboring Arg27/His56 RFC cDNA; assay: Folate growth requirement in RFC transfectants; assay type: cell-based
Description: as §2

[12] = test system: mouse MTX^rA leukemia transfectant harboring His27 RFC cDNA; assay: Folate growth requirement in RFC transfectants; assay type: cell-based
Description: as §2

[13] = test system: mouse MTX^rA leukemia transfectant harboring native RFC (Arg27) cDNA; assay: Folate growth requirement in RFC transfectants; assay type: cell-based
Description: as §2

[14] = substrate: CN(Cc1cnc2nc(N)nc(N)c2n1)c1ccc(C(=O)N[C@@H](CCC(=O)O)C(=O)O)cc1; assay: cells, lysate or membranes; conditions: other: CEM/GW70; influx, initial (3 min) uptake rates, Lineweaver-Burk; pH 7.4; 37.0 °C
[15] = substrate: Nc1nc2ncc(CNc3ccc(C(=O)N[C@@H](CCC(=O)O)C(=O)O)cc3)nc2c(=O)[nH]1; assay: cells, lysate or membranes; assay type: cell-based, human; conditions: influx, initial (3 min) uptake rates, Lineweaver-Burk, pH 7.4, 37.0 °C
[16] = substrate: CN(Cc1cnc2nc(N)nc(N)c2n1)c1ccc(C(=O)N[C@@H](CCC(=O)O)C(=O)O)cc1; assay: cells, lysate or membranes; assay type: cell-based, human; conditions: other: CEM/GW70-LF; influx, initial (3 min) uptake rates, Lineweaver-Burk; pH 7.4; 37.0 °C
[17] = Homo sapiens, Table 10, CEM/WT, 72 h drug exposure, read-out: IC50
[18] = Homo sapiens, 72 h, Table 10, GW70/LF
[19] = Homo sapiens, 72 h, Table 10, GW70/LF grown in the presence of 2.3 µM folic acid
[20] = Homo sapiens, 72 h, read-out: IC50, antifolate concentration that inhibits cell growth by 50%
[21] = Table 10, CEM/WT, 72 h drug exposure, read-out: IC50
[22] = Table 10, GW70, 72 h drug exposure, read-out: IC50
[23] = Table 10, GW70/LF, read-out: IC50
[24] = Mus musculus, read-out: EC50, concentration necessary to support 50% of maximal growth of control cells

TS, sequence (P07607 whole entry): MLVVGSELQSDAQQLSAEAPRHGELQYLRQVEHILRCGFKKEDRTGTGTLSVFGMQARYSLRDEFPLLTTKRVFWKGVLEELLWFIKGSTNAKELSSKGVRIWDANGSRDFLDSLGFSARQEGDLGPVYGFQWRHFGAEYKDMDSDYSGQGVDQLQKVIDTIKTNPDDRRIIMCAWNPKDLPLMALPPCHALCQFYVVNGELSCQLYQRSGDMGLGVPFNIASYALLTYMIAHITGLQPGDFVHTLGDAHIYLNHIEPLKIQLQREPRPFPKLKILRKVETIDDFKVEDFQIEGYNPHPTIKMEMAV

With `COc1cc(NCc2ccc3nc(N)nc(N)c3c2C)cc(OC)c1OC` [TMQ] as the molecule, how does the IC50 [1, 17] read?
Its IC50 is 7.5 ± 2.1 nM.

And the “sensitivity relative to parental CEM cells” value ([2]; GW70, listed as trimetraxate)?
Its value is “hypersensitive”.

What about the “sensitivity relative to parental CEM cells” value ([2]; GW70, listed as trimetrexate) of the same molecule?
Its value is “collaterally more sensitive than parental CEM cells”.

And the IC50 ([2]; Homo sapiens, 72 h)?
Its IC50 is 7.2 ± 1.7 nM.

What about the IC50 [3, 18] of the same molecule?
The IC50 was 1.1 ± 0.2 nM.

For `Nc1nc2c(c(=O)[nH]1)CC(CCc1ccc(C(=O)N[C@@H](CCC(=O)O)C(=O)O)cc1)CN2` (some centres unmarked) [DDATHF, 5,10-dideazatetrahydrofolic acid], which IC50 ([1]; Homo sapiens, 72 h) is on record?
Its IC50 is 11 ± 4 nM.

And the IC50 ([2]; Homo sapiens, 72 h)?
The IC50 was 360 ± 106 nM.

And the IC50 [3, 18]?
Its IC50 is 8.2 ± 1.7 nM.

What about the IC50 [3, 19] of the same molecule?
The IC50 was greater than 10000 nM.

For `Cc1nc2ccc3ccc(CNc4ccc5c(c4)CN([C@@H](CCC(=O)O)C(=O)O)C5=O)cc3c2c(=O)[nH]1` [GW1843], which IC50 [1, 20] is on record?
The IC50 was 1.8 ± 0.22 nM.

What about the IC50 [1, 17] of the same molecule?
The IC50 was 2.4 ± 0.4 nM.

What about the “fold resistance / cross-resistance” value ([2]; GW70 vs parental CEM cells) of the same molecule?
Its value is 100 fold.

And the IC50 ([2]; Homo sapiens, 72 h)?
The IC50 was 123 ± 48 nM.

And the IC50 [2, 20]?
Its IC50 is 172 ± 34.5 nM.

And the IC50 [3, 18]?
Its IC50 is 2.5 ± 0.7 nM.

And the IC50 [3, 19]?
Its IC50 is 7.5 ± 1.5 nM.

What about the “fold decreased affinity of RFC” value [4] of the same molecule?
Its value is 6 fold.

What about the Ki [5] of the same molecule?
Its Ki is 800 nM.

Which “fold increased affinity of RFC” value [4] does the source give for `CN1c2c(nc(N)[nH]c2=O)NCC1CNc1ccc(C(=O)N[C@@H](CCC(=O)O)C(=O)O)cc1` (some centres unmarked) [5-methyl-THF, 5-methyltetrahydrofolate] here?
Its value is 3 fold.

For `C#CCN(Cc1cc2c(=O)[nH]c(C)nc2cc1C)c1ccc(C(=O)N[C@@H](CCc2nnn[nH]2)C(=O)O)c(F)c1` [ZD9331], which IC50 ([1]; Homo sapiens, 72 h) is on record?
Its IC50 is 16 ± 1 nM.

What about the IC50 ([2]; Homo sapiens, 72 h) of the same molecule?
Its IC50 is 479 ± 67 nM.

What about the IC50 [3, 18] of the same molecule?
Its IC50 is 25 ± 6 nM.

And the IC50 [3, 19]?
Its IC50 is 12 ± 4 nM.

For `Cc1nc2ccc(CN(C)c3ccc(C(=O)N[C@@H](CCC(=O)O)C(=O)O)s3)cc2c(=O)[nH]1` [ZD1694], which IC50 [1, 17] is on record?
Its IC50 is 3.5 ± 0.6 nM.

What about the IC50 ([2]; Homo sapiens, 72 h) of the same molecule?
The IC50 was 515 ± 224 nM.

And the IC50 ([3]; Homo sapiens, 72 h, Table 10, GW70/LF grown in the presence of 2.3 µM folic acid, read-out: IC50)?
The IC50 was 389 ± 55 nM.

And the IC50 ([3]; Homo sapiens, 72 h, Table 10, GW70/LF, read-out: IC50)?
Its IC50 is 3.2 ± 0.5 nM.

And the Ki [6]?
The Ki was 60 nM.

With `Nc1nc2[nH]cc(CCc3ccc(C(=O)N[C@@H](CCC(=O)O)C(=O)O)cc3)c2c(=O)[nH]1` [MTA] as the molecule, how does the IC50 [1, 17] read?
The IC50 was 23 ± 7 nM.

What about the IC50 ([2]; Homo sapiens, 72 h) of the same molecule?
Its IC50 is 351 ± 73 nM.

And the IC50 [3, 18]?
Its IC50 is 4.6 ± 0.6 nM.

And the IC50 [3, 19]?
The IC50 was 221 ± 47 nM.

For `Nc1nc(N)c2nc(CNc3ccc(C(=O)N[C@@H](CCCNC(=O)c4ccccc4C(=O)O)C(=O)O)cc3)cnc2n1` [PT523], which IC50 [1, 21] is on record?
Its IC50 is 1.1 ± 0.3 nM.

And the IC50 [2, 22]?
The IC50 was 81 ± 16 nM.

And the IC50 [3, 23]?
Its IC50 is 1.4 ± 0.1 nM.

For `Nc1nc2c(c(=O)[nH]1)N(C=O)C(CNc1ccc(C(=O)N[C@@H](CCC(=O)O)C(=O)O)cc1)CN2` (some centres unmarked) [Leucovorin, 5-formyltetrahydrofolate], which EC50 [7] is on record?
The EC50 was 0.51 ± 0.08 nM.

And the EC50 [8]?
The EC50 was 2.4 ± 1.1 nM.

And the “MTX IC50/leucovorin EC50 ratio” value ([9]; Glu45Lys transfectant, in parentheses)?
Its value is “(1.17)”.

And the EC50 [9, 24]?
The EC50 was 0.65 ± 0.15 nM.

What about the EC50 [10, 24] of the same molecule?
Its EC50 is 0.42 ± 0.1 nM.

What about the “MTX IC50/leucovorin EC50 ratio” value ([10]; in parentheses) of the same molecule?
Its value is “(1.81)”.

And the EC50 [11, 24]?
Its EC50 is 0.7 ± 0.14 nM.

What about the “MTX IC50/leucovorin EC50 ratio” value ([11]; in parentheses) of the same molecule?
The value was “(1.32)”.

What about the EC50 [12, 24] of the same molecule?
The EC50 was 0.78 ± 0.09 nM.

What about the “MTX IC50/leucovorin EC50 ratio” value ([12]; in parentheses) of the same molecule?
Its value is “(0.97)”.

What about the “MTX IC50/leucovorin EC50 ratio” value ([13]; Arg27 transfectant, in parentheses) of the same molecule?
Its value is “(1)^c”.

What about the EC50 ([13]; Mus musculus, read-out: EC50, concentration necessary to support 50% of maximal growth of control cells, Arg27 (native RFC) transfectant) of the same molecule?
The EC50 was 0.76 ± 0.03 nM.

What does the source list for `Cc1ccc2nc(N)[nH]c(=O)c2c1Sc1ccncc1` [AG337]?
IC50 [1, 21]: 1800 ± 340 nM; sensitivity relative to parental CEM cells ([2]; GW70): collaterally more sensitive than parental CEM cells; IC50 [2, 22]: 974 ± 241 nM; IC50 ([3]; Table 10, GW70/LF grown in the presence of 2.3 µM folic acid, read-out: IC50): 2220 ± 264 nM; IC50 [3, 23]: 920 ± 430 nM

B1: RFC in GW70 cells (Homo sapiens; E45K/H27R/S46I/V29L) (protein)
chain: T1 sequence (P41440 1-591 H27R/V29L/E45K/S46I)
notes: endogenous in cells; host or cells: CEM-GW70 (GW1843U89-resistant CCRF-CEM subline)
Which Km [14] does the source give for B1 here?
Its Km is 16 ± 3.9 µM.

What about the Km ([15]; other: CEM/GW70) of the same molecule?
The Km was 16.5 ± 3.4 µM.

B2: RFC in GW70/LF cells (Homo sapiens; D88H/E45K/H27R/S46I/V29L) (protein)
chain: T1 sequence (P41440 1-591 H27R/V29L/E45K/S46I) with D88H
notes: a prominent overproduction of the native ˜80 kDa and truncated 43 kDa RFC proteins; endogenous in cells; host or cells: GW70/LF (GW70 cells adapted to low folate; 5-fold RFC gene amplification)
What does the source list for B2?
Km [16]: 17.1 ± 1.2 µM; Km ([15]; other: CEM/GW70-LF): 15.5 ± 2.5 µM
